Test results: patent publication US5567736A, “Use of a choline salt to inhibit fatty liver in patients receiving total parenteral nutrition” (priority 1994, dated 1996)
Where “and” joins values, the source holds several entries; their conditions need not be identical. Identical values can stand only once.

Legend:
[1] = tested on: hepatic steatosis (liver)
Excerpt: (§1) Four subjects who were known to have low plasma free choline levels and hepatic steatosis were studied. The subjects included 3 females and 1 person. Two subjects had short bowel syndrome from Crohn's disease, one had radiation enteritis and the fourth had pseudo-obstruction. The subjects had received home TPN for 9.7±4.7 years. Their TPN consisted of 2-3L of 15-25% dextrose solution with 3.0-3.5% amino acids, electrolytes, trace elements and vitamins. All subjects received 19.5±3.7 kcal-kg day actual body weight (range 16-24 kcal/kg/d). This level of support varied between subjects depending upon individual variation in oral intake and intestinal absorption.
Intravenous lipid (Intralipid 20%, Clintec, Deerfield, Ill.) supplied 42.5%±25.7% of daily intravenous caloric intake. […] The TPN solution for each subject included 2.3-5 g of methionine on a daily basis depending upon the total amino acid concentration. The vitamin preparation included 5 μg vitamin B12 and 400 μg folate on a daily basis. All subjects received their TPN nightly as one dose over a period of 10-12 hours.
(§2) Plasma-free choline level, serum SGOT, SGPT and total cholesterol levels were measured at each visit. Plasma free choline was measured by gas chromatography and mass spectrophotometry (See Jenden DJ, Roch M, Booth RA. Simultaneous measurements of endogenous and deuterium-labeled tracer variants of choline and acetylcholine in subpicomole quantities by gas chromatography spectrometry. Anal Biochem. 55:438-48, 1973; and Freeman JJ, Choi RL, Jenden DJ. Plasma choline: its turnover and exchange with brain choline. J. Neurochem. 24:729-34, 1975.)
Computed tomography (CT) was used as a non-invasive method for quantifying hepatic fat density. Limited non-contrast CT scanning of the liver and spleen was performed using a GE 9800 CT scanner (Milwaukee, Wis.). Multiple contiguous 1-cm axial sections at 1-cm intervals were obtained. Attenuation values for regions of interest in the liver and spleen were generated from multiple representative sections. An average (mean) CT number in Hounsfield units (HU) was then calculated for each organ. Liver density was determined using two currently acceptable methods: a) the average absolute liver CT number, and b) the liver-spleen differential obtained by subtracting the average spleen CT number from the average liver CT number (to correct for interscan variability).
In the normal state, the liver and spleen maintain a fairly constant relationship in terms of relative CT numbers on non-contrast scans. On the main scanner employed at our institution, normal liver density corresponds to approximately 45 HU in absolute terms, and normal liver attenuation values exceed those of the spleen by approximately 8 HU (i.e., a liver-spleen differential of approximately positive 8 HU). Fat has a distinctly lower attenuation than other tissues and thus a distinct appearance on the CT image, as well as a distinctly low CT number in HU. Hepatic density and hepatic steatosis are therefore inversely related. Fatty liver was defined as an absolute CT number </=45 HU, or a liver-spleen differential of </= positive 8.0 HU (with 0-to-positive 8 HU representing borderline fatty change and </=0 HU corresponding to marked fatty infiltration).

[2] = all subjects; baseline 5.2±2.1, normal 11.4+/-3.7 nmol/ml
Excerpt: as §1, with “females aged 45, 50 and 72 years” for “females”
as §2
The hepatic transaminase levels and cholesterol were determined using standard automated techniques. […]

[3] = tested on: hepatic transaminase levels; conditions: during the study, except Subject #1; three of four subjects had normal AST and ALT at baseline
Description: as §2
(§3) The hepatic transaminase levels and cholesterol were determined using standard automated techniques. Plasma phospholipid bound choline was measured at baseline, at the end of the 6 week nightly choline infusion and 4 weeks later following extraction as described by Folch et al (Folch J, Lees M, Stanley GHS. A simple method for the isolation and purification of total lipids from animal tissue. J. Bio Chem. 226:497-509, 1957.) and hydrolysis as described by Jope and Jenden (Jope RS, Jenden DJ. Choline and phospholipid metabolism and the synthesis of acetylcholine in rat brain. J. Neurosci Res. 4:69-82, 1979.). All blood samples were obtained on the subjects following an overnight fast and 3-5 hours following completion of the TPN.

total serum cholesterol = conditions: during the study
Description: as §2, §3

[4] = Excerpt: as §1, §2
[5] = Subject #4, pharmacokinetic studies preceding the 6 week choline infusion
Remark: listed apart in the source
[6] = concentrations as high as 10 g/l
[7] = various TPN nutrient solutions, at least 30 days

With `C[N+](C)(C)CCO.[Cl-]` [choline chloride] the “Liver-spleen Hounsfield unit differential, 4 Wks post choline” value ([1]; 4 weeks after choline discontinued, b48 Subject 1 (baseline -47.0), b50 Subject 2 (-0.7), b52 Subject 3 (0.3)) was 10.6 Hounsfield unit and 15.7 Hounsfield unit and 15.0 Hounsfield unit, the “Liver-spleen Hounsfield unit differential, 10 weeks post choline supplementation” value ([1]; Subject 4 (baseline -9.4), 10 weeks post choline supplementation) was -6.3 Hounsfield unit and the “liver-spleen CT number differential, normalisation” value ([1]; concurrent scans, six weeks of choline) was “assumed a normal or near-normal relationship”. For the same compound, the “hepatic steatosis four weeks after choline was discontinued” value ([1]; follow-up post-supplementation CT) was “had not yet returned to baseline”, the “improvement of CT number difference (liver-spleen subtraction method), average” value ([1]; initial CT two weeks after choline started vs baseline, 4 subjects, p=0.002) was 20+/-16.5 HU and the “hepatic steatosis ten weeks after choline supplemented TPN discontinued” value ([1]; one subject (printed #3)) was “had recurred”. For the same compound, the “liver density ten weeks after choline supplemented TPN discontinued” value ([1]; one subject (printed #3)) was “appeared identical to the baseline CT scan”, the “liver-spleen differential ten weeks after choline supplemented TPN discontinued” value ([1]; one subject (printed #3)) was “returned to its original, pre-choline supplementation value” and the “hepatic steatosis during six weeks of choline supplementation” value ([1]; six weeks of choline, all four subjects) was “completely resolved in all four subjects”. For the same compound, the “liver density at initial CT scan” value ([1]; two weeks after choline supplementation initiated) was “marked increase in liver density”, the “hepatic steatosis at initial CT scan” value ([1]; two weeks after choline supplementation initiated, all 4 subjects) was “decreased significantly in all 4 subjects” and the “CT number difference (liver-spleen subtraction method), mean after choline” value ([1]; two weeks of choline, 4 subjects, baseline -14.2+/-22.3 HU, p=0.002) was 8.4 +/-10.3 HU. The “plasma free choline level after one week of choline supplementation” value [2] was “increased into the normal range”, the hepatic transaminase levels [3] was “No significant decreases” and the total serum cholesterol (total serum cholesterol) was “No change”. The “tolerability after dose increased back to 1 g/day” value ([4]; Subject #4, from day 30 for remainder of study, 1 g/day) was “without complaints”, the “side effect requiring dose adjustment” value ([4]; Subject #4, upon awakening at end of choline infusion, dose decreased from 2 g/day to 1 g/day, then 1 g every other day) was “mild nausea” and the “side effects or dose adjustment in other subjects” value ([4]; subjects other than #4) was “No other subject experienced any side effects or required a dose adjustment”. The “plasma free choline level tolerated without any side effects” value [5] was at most 230 nmol/mL, the “effect on amino acid availability of the TPN solution” value [6] was “does not affect” and the “effect on pH of the TPN solution” value [6] was “does not affect”. The “stability in TPN solution” value [6] was “at least 30 days”, the “stability in various TPN nutrient solutions” value (various TPN nutrient solutions) was “at least 30 days” and the “effect on TPN solution amino acid concentrations” value [7] was “no adverse affects”. The “effect on TPN solution pH” value [7] was “no adverse affects” and the “effect on TPN solution turbidity” value [7] was “no adverse affects”.
